Entries after “also recorded” stand apart in the source; their conditions may differ. Each block holds one compound with its values, some of them ahead of it.
Assays:
[1] = Tolerability, body weight and food intake in high fat diet obese mice given C15:0; type: in vivo
Protocol: (§1) This study examined the impact of daily oral administration of synthetic pentadecanoic acid (C15:0) on inflammation in an obese mouse model. Twenty C57BL/6J mice were fed a high fat diet (HFD) (D12492, 60% kcals fat) for 8 weeks. Study mice were then divided into the following two groups of ten: vehicle controls and C15:0-treated (5 mg/kg body weight). The predicted therapeutic dose of 5 mg/kg was based upon modified diet studies in the dolphin model.
Mice in the C15:0 treatment group tolerated the test article throughout the study. […] No changes were found in body weight, percent body weight change, or food intake when comparing the study groups (not shown).

IL-6, IL-18, and MCP-1 = test: Serum adipokines (cytokines) in high fat diet induced obese mice after daily oral C15:0; type: in vivo, C57BL/6J mice; settings: obese HFD mice
Protocol: as §1

[2] = Total serum fatty acid concentrations in dolphins fed modified fish diet; settings: for Total serum fatty acid concentration: case dolphins fed modified diet (n = 20); for concentration at 0 month / concentration at 1 month / concentration at 3 month / concentration at 6 month: bottlenose dolphin (Tursiops truncatus)
Protocol: This study examined the impact on inflammation by modifying fatty acid profiles through the diet in 20 MMP dolphins (“Group A dolphins”). The dolphins lived in netted enclosures within San Diego Bay. […] On blood collection days, Group A dolphins were fed one-third of their daily diet in the morning after their routine overnight fast and 2h postprandial, in-water, and trained blood samples were drawn (typically near 10:00 a.m.). An additional ten MMP dolphins (“Group B dolphins”) were maintained on the baseline capelin diet throughout the study period.
Two hour post-prandial samples were collected from Group A and Group B dolphins at baseline (month 0) and at three time points following the switch to the modified diet: months 1, 3, and 6. Dolphins were assessed for changes in serum fatty acid concentrations (total and various forms) and indices of inflammation, including erythrocyte sedimentation rate and alkaline phosphatase.
Blood was collected into BD Vacutainer serum separator tubes (for serum fatty acid profiles) or an evacuated tube containing EDTA (K3). Serum separator tubes were centrifuged at 3000 rpm for 10 minutes within 30 to 60 minutes of collection and chilled during processing until shipment. Serum was transferred to cryovials and stored at −80° C. until shipment on dry ice via overnight courier to the reference laboratories.
Total serum fatty acid profiles were performed by the Genetics Laboratories at the Kennedy Krieger Institute. […] Each run was required to pass clinical laboratory quality control before the data were released. […] Percent fatty acids in serum was used as a sturdier index to help reduce potential variability in serum among study dolphins.
Statistical analyses were conducted using World Programming System software (World Programming Ltd., Hampshire, United Kingdom). Significance was defined as a P value less than or equal to 0.05. Mean daily dietary intake of individual fatty acids were compared between pre-study and in-study diets for Group A and Group B dolphins using Wilcoxon rank sum tests. Indices of inflammation (erythrocyte sedimentation rate and alkaline phosphatase) and serum fatty acid concentrations (total and individual classes) from Month 1, 3, and 6 were compared with Month 0 for Group A and Group B dolphins using repeated measures ANOVA (MIXED model). […] Fatty acids that were independent predictors of erythrocyte sedimentation rate were then tested for linear associations with erythrocyte sedimentation rate using simple linear regressions. Fatty acids that were independent predictors of erythrocyte sedimentation rate and had inverse linear associations with these indices (defined as a P value less than or equal to 0.05 and an R^2 greater than or equal to 0.1), were characterized as fatty acids that independently predicted improved inflammation.

[3] = Serum fatty acid form concentrations (complex lipidomics) in dolphins fed modified fish diet; type: in vivo; settings: bottlenose dolphin (Tursiops truncatus), case dolphins fed modified diet (n = 20), read-out: Serum concentration, FFA (free fatty acid) form; for concentration at 0 month: Month 0 (baseline); for concentration at 1 month: Month 1; for concentration at 3 month: Month 3; for concentration at 6 month: Month 6
Protocol: Determination of serum fatty acid concentrations, including a variety of fatty acid classes, were performed by Metabolon, Inc. (Durham, N.C.) using complex lipidomics. […] The extracts were concentrated under nitrogen and reconstituted in 0.25 mL of dichloromethane:methanol (50:50) containing 10 mM ammonium acetate. The extracts were placed in vials for infusion-MS analyses, performed on a SelexION equipped Sciex 5500 QTRAP using both positive and negative mode electrospray. Each sample was subjected to 2 analyses, with IMS-MS conditions optimized for lipid classes monitored in each analysis. The 5500 QTRAP was operated in MRM mode to monitor the transitions for over 1,100 lipids from up to 14 lipid classes. Individual lipid species were quantified based on the ratio of signal intensity for target compounds to the signal intensity for an assigned internal standard of known concentration. Lipid class concentrations were calculated from the sum of all molecular species within a class, and fatty acid compositions were determined by calculating the proportion of individual fatty acids within each class.

[4] = tested on: erythrocyte sedimentation rate; test: Regression of serum fatty acid forms against erythrocyte sedimentation rate in dolphins on modified diet; type: in vivo, bottlenose dolphin (Tursiops truncatus); settings: for Serum hexosylceramide concentration resulting in erythrocyte sedimentation rates lower than 15 mm/hr (threshold effect): FIGS. 3A-3B
[5] = Month 0 (baseline), 2h postprandial

SMILES: CCCCCCCCCCCCCCC(=O)O [C15:0, pentadecanoic acid]
- Early mortalities in treated group ([1]; mouse, in vivo, 5 mg/kg): no early mortalities
- Tolerability of the test article ([1]; mouse, in vivo, 5 mg/kg): tolerated
- Body weight, percent body weight change, or food intake vs control group ([1]; obese HFD mice, 5 mg/kg daily gastric gavage, 12 weeks): No changes
- Serum IL-6 (IL-6, IL-18, and MCP-1; 5 mg/kg daily gastric gavage, Day 84 (n = 10), vehicle control 60 ± 68): 19 ± 11
- Serum MCP-1 (IL-6, IL-18, and MCP-1; 5 mg/kg daily gastric gavage, Day 84 (n = 10), vehicle control 83 ± 31): 52 ± 25
- Serum IL-18 (IL-6, IL-18, and MCP-1; 5 mg/kg daily gastric gavage, Day 84 (n = 10), vehicle control 206 ± 84): 101 ± 86
- Inflammation and adipokines (IL-6, IL-18, and MCP-1) compared to vehicle controls (IL-6, IL-18, and MCP-1; 5 mg/kg daily oral, 12 weeks, 5 mg/kg): lower; also recorded: reduced
- Total serum fatty acid concentration ([2]; Month 1, 2h postprandial): 94 ± 33 µM
- concentration at 0 month ([3]; serum, oral): 3.8 ± 1.3 µM
- concentration at 1 month ([3]; serum, oral): 4.2 ± 1.5 µM
- concentration at 3 month ([3]; serum, oral): 3.6 ± 0.8 µM
- concentration at 6 month ([3]; serum, oral): 3.8 ± 1.3 µM
- Serum cholesterol ester concentration resulting in erythrocyte sedimentation rates lower than 15 mm/hr (threshold effect) ([4]; FIGS. 2A-2B): greater than 60 uM

SMILES: CCCCCCCCCCCCCCCC(=O)O [C16:0, palmitic acid]
- Total serum fatty acid concentration [2, 5]: 1445 ± 194 µM
- Total serum fatty acid concentration ([2]; Month 1, 2h postprandial): 1372 ± 199 µM
- Total serum fatty acid concentration ([2]; Month 3, 2h postprandial): 1505 ± 221 µM
- Total serum fatty acid concentration ([2]; Month 6, 2h postprandial): 1450 ± 155 µM

- Total serum fatty acid concentration ([2]; Month 1, 2h postprandial): 82 ± 21 µM
SMILES: CCCCCCCCCCCCCCCCC(=O)O [C17:0, heptadecanoic acid]
- Serum phosphatidylcholine concentration resulting in erythrocyte sedimentation rates lower than 15 mm/hr (threshold effect) ([4]; FIGS. 2A-2B): greater than 30 uM

- concentration at 0 month ([2]; in vivo): 94 ± 22 µM
- concentration at 1 month ([2]; in vivo): 87 ± 17 µM
- concentration at 3 month ([2]; in vivo): 98 ± 17 µM
- concentration at 6 month ([2]; in vivo): 96 ± 15 µM
- concentration at 0 month ([3]; in vivo): 6.6 ± 2.5 µM
- concentration at 1 month ([3]; in vivo): 4.4 ± 1.4 µM
- concentration at 3 month ([3]; in vivo): 5 ± 2.3 µM
- concentration at 6 month ([3]; in vivo): 17 ± 10 µM
SMILES: CCCCCCCCCCCCCCCCCCCC(=O)O [C20:0, arachidic acid]
- Serum hexosylceramide concentration resulting in erythrocyte sedimentation rates lower than 15 mm/hr (threshold effect) [4]: greater than 0.20 uM

SMILES: CCCCCCCCCCCCCCCCCCCCCC(=O)O [C22:0, behenic acid]
- Total serum fatty acid concentration [2, 5]: 23 ± 4 µM
- Total serum fatty acid concentration ([2]; Month 1, 2h postprandial): 21 ± 3 µM
- Total serum fatty acid concentration ([2]; Month 3, 2h postprandial): 23 ± 3 µM
- Total serum fatty acid concentration ([2]; Month 6, 2h postprandial): 24 ± 5 µM
- Serum hexosylceramide concentration resulting in erythrocyte sedimentation rates lower than 15 mm/hr (threshold effect) [4]: greater than 0.11 uM

- concentration at 0 month ([2]; serum, oral): 18 ± 3 µM
- concentration at 1 month ([2]; serum, oral): 17 ± 3 µM
- concentration at 3 month ([2]; serum, oral): 18 ± 3 µM
- concentration at 6 month ([2]; serum, oral): 18 ± 3 µM
SMILES: CCCCCCCCCCCCCCCCCCCCCCCC(=O)O [C24:0, lignoceric acid]

SMILES: CCCCCCCCCCCCCCCCCCCCCCCCCC(=O)O [C26:0]
- Total serum fatty acid concentration [2, 5]: 1.0 ± 0.1 µM
- Total serum fatty acid concentration ([2]; Month 1, 2h postprandial): 0.8 ± 0.1 µM
- Total serum fatty acid concentration ([2]; Month 3, 2h postprandial): 0.9 ± 0.1 µM
- Total serum fatty acid concentration ([2]; Month 6, 2h postprandial): 0.9 ± 0.1 µM
